# Reference: US20250339569A1, “CARBONIC ANHYDRASE IX LIGANDS” (priority 2021, published 2025)
# Starred links: 1 amine or outer side, 2 acyl side, 3 side chain; linkers in the order of their positions; H or OH if unused. Positions of bridges follow the written chain, without caps; N, C: chain ends. Non-standard residues stand in square brackets, D forms with d. Residues, ends and D or L forms follow the SMILES beside them. *: point of attachment. NH(CH2)3NHDOTA = O=C(O)CN1CCN(CC(=O)O)CCN(CC(=O)NCCCN*)CCN(CC(=O)O)CC1; DOTA = O=C(O)CN1CCN(CC(=O)O)CCN(CC(=O)*)CCN(CC(=O)O)CC1; Trp(5-Cl) = N[C@@H](Cc1c[nH]c2ccc(Cl)cc12)C(=O)O; mXylylene = c1cc(C[*:1])cc(C[*:2])c1; Bta = N[C@@H](Cc1csc2ccccc12)C(=O)O; Trx = NC[C@H]1CC[C@H](C(=O)O)CC1; X2 = O=C(CN1CCC(N[*:1])CC1)[*:2]; dPip = O=C(O)[C@H]1CCCCN1; dNMeA = CN[C@H](C)C(=O)O; Ac5c = NC1(C(=O)O)CCCC1; AEEA = NCCOCCOCC(=O)O; Sar = CNCC(=O)O
# Tests used:
# [1] = molecular target: T1, CAIX-expressing human HT-29 colorectal cancer cells (Homo sapiens, UniProt Q16790); experiment: FACS binding assay (IC50 determination, competition with tracer 3BP-2776 or 3BP-4149); settings: FACS competition on HT-29 cells, Tracer ID 3BP-2776 (10 nM, biotin-labeled), 4° C., 1 hour; read-out: pIC50 category (activity) (converted)
# T1 construct: CAIX-expressing human HT-29 colorectal cancer cells; host or cells: HT-29 human colorectal cancer cells
# Outline: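 HT-29 cells in FACS buffer (PBS, 1% FCS) at 500.000 cells/ml were exposed to compounds competing with a labelled tracer, with biotinylated compounds detected by 1 μg/mL APC-streptavidin for 30 min on ice. APC/Cy5 median fluorescence was read by flow cytometry and IC50 derived by 4PL fit.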
# [2] = molecular target: T2, human carbonic anhydrase IX (hCAIX-Fc) (Homo sapiens, UniProt Q16790); experiment: Surface plasmon resonance assay with hCAIX-Fc; assay type: binding; settings: 25° C.; for t1/2 category (activity): SPR dissociation half-life, hCAIX-Fc; for Kd: SPR, hCAIX-Fc captured, read-out: pKD category (activity) (converted)
# T2 construct: purchased SinoBliological (Sino Biological) 10107-H02H
# Procedure: Surface plasmon resonance (SPR) studies were performed using a Biacore™ T200 SPR system (GE Healthcare Life Sciences). Briefly, polarized light is directed towards a gold-labeled sensor surface, and minimum intensity reflected light is detected. The angle of reflected light changes as molecules bind and dissociate.
# Fc-fusion protein of human carbonic anhydrase IX (hCAIX-Fc, SinoBliological, Cat #10107-H02H) was captured on a Fc-capture chip (Biacore™ CM5 sensor chip coated with ˜300 RU of an Fc-binding peptide). Recombinant carbonic anydrase was diluted in Running Buffer (PBST, 0.1% DMSO) to a final concentration 100 or 200 nM and than flushed over the Fc-capture chip to immobilized ˜1000 RUs.
# Stock solutions of test compounds were prepared by dissolving each compound in DMSO. DMSO stock solution were diluted 1:1000 in Running Buffer without DMSO. Further sequencial dilutions were made with Running Buffer containing 0.1% DMSO. SPR binding analyses were performed in Single Cycle Kinetic (SCK) mode at 25° C. Flow cell coated with the Fc-binding peptide only served as reference flowcell. After each SCK run, carbonic andydrase IX was removed with 10 mM glycine buffer, pH 1.5.
# In between every three SCK measurements, a blank run with Running Buffer instead of test compound was included to correct for baseline drifts (double blanking methods).
# Table 11 describes the protocol steps for Fc-fusion target capturing and assessment of the binding kinetics.
# For each test compound, SPR raw data in the form of resonance units (RU) were plotted as sensorgrams using the Biacore™ T200 control software. The signal from the blank sensorgram was subtracted from that of the test compound sensorgram (blank corrected). The blank corrected sensorgram was corrected for baseline drift by subtracting the sensorgram of a SCK run without the test compound (running buffer only). The association rate (kon), dissociation rate (koff), dissociation constant (KD), and t1/2 were calculated from Blank-normalized SPR data using the 1:1 Langmuir binding model from the Biacore™ T200 evaluation software. Raw data and fit results were imported as text files in IDBS. The pKD value (negative decadic logarithm of dissociation constant) was calculated in the IDBS excel template.
SMILES,IC50 [1] [µM],t1/2 category (activity) [2],Kd [2] [µM]
CC(=O)N[C@H](C(=O)N[C@@H](Cc1ccc(O)cc1)C(=O)N[C@H]1CSCc2cccc(c2)CSC[C@@H](C(N)=O)NC(=O)[C@H](C)NC(=O)[C@H](Cc2c[nH]c3ccccc23)NC(=O)[C@H]([C@@H](C)O)NC(=O)[C@H](CC(C)C)NC(=O)[C@H](Cc2c[nH]c3ccccc23)NC(=O)[C@H](CC(=O)O)NC(=O)[C@@H](C)NC(=O)[C@H](CCC(=O)O)NC1=O)C(C)C [3BP-3280] (Ac-VYCE[dA]DWLTWAC-NH2; linker 3-12 via mXylylene),< 0.01,B (t1/2 between 5.1 and 15.0 minutes),< 0.01
CC(=O)N[C@H](C(=O)N[C@@H](Cc1ccc(O)cc1)C(=O)N[C@H]1CSCc2cccc(c2)CSC[C@@H](C(N)=O)NC(=O)[C@H](C)NC(=O)[C@H](Cc2c[nH]c3ccccc23)NC(=O)[C@H]([C@@H](C)O)NC(=O)[C@H](CC(C)C)NC(=O)[C@H](Cc2c[nH]c3ccccc23)NC(=O)[C@H](CC(=O)O)NC(=O)[C@@H](C)N(C)C(=O)[C@H](CCC(=O)O)NC1=O)C(C)C [3BP-3281] (Ac-VYCE[dNMeA]DWLTWAC-NH2; linker 3-12 via mXylylene),< 0.01,,< 0.01
CC(=O)N[C@H](C(=O)N[C@@H](Cc1ccc(O)cc1)C(=O)N[C@H]1CSCc2cccc(c2)CSC[C@@H](C(N)=O)NC(=O)[C@H](C)NC(=O)[C@H](Cc2c[nH]c3ccccc23)NC(=O)[C@H]([C@@H](C)O)NC(=O)[C@H](CC(C)C)NC(=O)[C@H](Cc2c[nH]c3ccccc23)NC(=O)[C@H](CC(=O)O)NC(=O)[C@H]2CCCCN2C(=O)[C@H](CCC(=O)O)NC1=O)C(C)C [3BP-3283] (Ac-VYCE[dPip]DWLTWAC-NH2; linker 3-12 via mXylylene),< 0.01,,< 0.01
CC(=O)N[C@H](C(=O)N[C@@H](Cc1ccc(O)cc1)C(=O)N[C@H]1CSCc2cccc(c2)CSC[C@@H](C(N)=O)NC(=O)[C@H](CCC(N)=O)NC(=O)[C@H](Cc2c[nH]c3ccccc23)NC(=O)[C@H]([C@@H](C)O)NC(=O)[C@H](CC(C)C)NC(=O)[C@H](Cc2c[nH]c3ccc(Cl)cc23)NC(=O)[C@H](CC(=O)O)NC(=O)CN(C)C(=O)[C@H](CCC(=O)O)NC1=O)C(C)C [3BP-3289] (Ac-VYCE[Sar]D[Trp(5-Cl)]LTWQC-NH2; linker 3-12 via mXylylene),< 0.01,B (t1/2 between 5.1 and 15.0 minutes),< 0.01
CC(=O)N[C@H](C(=O)N[C@@H](Cc1ccc(O)cc1)C(=O)N[C@H]1CSCc2cccc(c2)CSC[C@@H](C(N)=O)NC(=O)[C@H](CCC(N)=O)NC(=O)[C@H](Cc2c[nH]c3ccccc23)NC(=O)[C@H]([C@@H](C)O)NC(=O)[C@H](CC(C)C)NC(=O)[C@H](Cc2csc3ccccc23)NC(=O)[C@H](CC(=O)O)NC(=O)CN(C)C(=O)[C@H](CCC(=O)O)NC1=O)C(C)C [3BP-3311] (Ac-VYCE[Sar]D[Bta]LTWQC-NH2; linker 3-12 via mXylylene),< 0.01,C (t1/2 between 2.1 and 5.0 minutes),< 0.01
CC(=O)N[C@H](C(=O)N[C@@H](Cc1ccc(O)cc1)C(=O)N[C@H]1CSCc2cccc(c2)CSC[C@@H](C(N)=O)NC(=O)[C@H](C)NC(=O)[C@H](Cc2c[nH]c3ccccc23)NC(=O)[C@H]([C@@H](C)O)NC(=O)[C@H](CC(C)C)NC(=O)[C@H](Cc2c[nH]c3ccccc23)NC(=O)[C@H](CC(=O)O)NC(=O)CN(C)C(=O)[C@H](CCC(=O)O)NC1=O)C(C)C [3BP-3313] (Ac-VYCE[Sar]DWLTWAC-NH2; linker 3-12 via mXylylene),< 0.01,C (t1/2 between 2.1 and 5.0 minutes),< 0.01
CC(=O)N[C@H](C(=O)N[C@@H](Cc1ccc(O)cc1)C(=O)N[C@H]1CSCc2cccc(c2)CSC[C@@H](C(N)=O)NC(=O)[C@H](CO)NC(=O)[C@H](Cc2c[nH]c3ccccc23)NC(=O)[C@H]([C@@H](C)O)NC(=O)[C@H](CC(C)C)NC(=O)[C@H](Cc2c[nH]c3ccccc23)NC(=O)[C@H](CC(=O)O)NC(=O)[C@H]2CCCN2C(=O)[C@H](CCC(=O)O)NC1=O)C(C)C [3BP-3565] (Ac-VYCE[dP]DWLTWSC-NH2; linker 3-12 via mXylylene),< 0.01,A (t1/2>15.0 minutes),< 0.01
CC(C)[C@H](NC(=O)CN1CCC(NC(=O)CN2CCN(CC(=O)O)CCN(CC(=O)O)CCN(CC(=O)O)CC2)CC1)C(=O)N[C@@H](Cc1ccc(O)cc1)C(=O)N[C@H]1CSCc2cccc(c2)CSC[C@@H](C(N)=O)NC(=O)[C@H](CO)NC(=O)[C@H](Cc2c[nH]c3ccccc23)NC(=O)[C@H]([C@@H](C)O)NC(=O)C2(CCCC2)NC(=O)[C@H](Cc2c[nH]c3ccccc23)NC(=O)[C@H](CC(=O)O)NC(=O)[C@H]2CCCN2C(=O)[C@H](CCC(=O)O)NC1=O [3BP-3587] ({DOTA}-[X2]VYCE[dP]DW[Ac5c]TWSC-NH2; linker 4-13 via mXylylene),< 0.01,C (t1/2 between 2.1 and 5.0 minutes),< 0.01
CC(C)C[C@@H]1NC(=O)[C@H](Cc2c[nH]c3ccccc23)NC(=O)[C@H](CC(=O)O)NC(=O)[C@H]2CCCN2C(=O)[C@H](CCC(=O)O)NC(=O)[C@@H](NC(=O)CN2CCC(NC(=O)CN3CCN(CC(=O)O)CCN(CC(=O)O)CCN(CC(=O)O)CC3)CC2)CSCc2cccc(c2)CSC[C@@H](C(N)=O)NC(=O)[C@H](CO)NC(=O)[C@H](Cc2c[nH]c3ccccc23)NC(=O)[C@H]([C@@H](C)O)NC1=O [3BP-3858] ({DOTA}-[X2]CE[dP]DWLTWSC-NH2; linker 2-11 via mXylylene),< 0.01,D (t1/2≤2.0 minutes),< 0.01
CC(C)C[C@@H]1NC(=O)[C@H](Cc2c[nH]c3ccccc23)NC(=O)[C@H](CC(=O)O)NC(=O)[C@H]2CCCN2C(=O)[C@H](CCC(=O)O)NC(=O)[C@@H](NC(=O)[C@H](Cc2ccc(O)cc2)NC(=O)CN2CCC(NC(=O)CN3CCN(CC(=O)O)CCN(CC(=O)O)CCN(CC(=O)O)CC3)CC2)CSCc2cccc(c2)CSC[C@@H](C(N)=O)NC(=O)[C@H](CO)NC(=O)[C@H](Cc2c[nH]c3ccccc23)NC(=O)[C@H]([C@@H](C)O)NC1=O [3BP-3867] ({DOTA}-[X2]YCE[dP]DWLTWSC-NH2; linker 3-12 via mXylylene),< 0.01,C (t1/2 between 2.1 and 5.0 minutes),< 0.01
CC(C)C[C@@H]1NC(=O)[C@H](Cc2c[nH]c3ccccc23)NC(=O)[C@H](CC(=O)O)NC(=O)[C@H]2CCCN2C(=O)[C@H](CCC(=O)O)NC(=O)[C@@H](NC(=O)[C@H](Cc2ccc(O)cc2)NC(=O)[C@H]2CC[C@H](CNC(=O)CN3CCN(CC(=O)O)CCN(CC(=O)O)CCN(CC(=O)O)CC3)CC2)CSCc2cccc(c2)CSC[C@@H](C(N)=O)NC(=O)[C@H](CO)NC(=O)[C@H](Cc2c[nH]c3ccccc23)NC(=O)[C@H]([C@@H](C)O)NC1=O [3BP-3868] ({DOTA-Trx}-YCE[dP]DWLTWSC-NH2; linker 2-11 via mXylylene),< 0.01,B (t1/2 between 5.1 and 15.0 minutes),< 0.01
CC(C)C[C@@H]1NC(=O)[C@H](Cc2c[nH]c3ccccc23)NC(=O)[C@H](CC(=O)O)NC(=O)[C@H]2CCCN2C(=O)[C@H](CCC(=O)O)NC(=O)[C@@H](NC(=O)[C@H](Cc2ccc(O)cc2)NC(=O)COCCOCCNC(=O)CN2CCN(CC(=O)O)CCN(CC(=O)O)CCN(CC(=O)O)CC2)CSCc2cccc(c2)CSC[C@@H](C(N)=O)NC(=O)[C@H](CO)NC(=O)[C@H](Cc2c[nH]c3ccccc23)NC(=O)[C@H]([C@@H](C)O)NC1=O [3BP-3869] ({DOTA-AEEA}-YCE[dP]DWLTWSC-NH2; linker 2-11 via mXylylene),< 0.01,C (t1/2 between 2.1 and 5.0 minutes),0.01 to 0.0794
CC(=O)N[C@@H](CO)C(=O)N[C@@H](Cc1ccc(O)cc1)C(=O)N[C@H]1CSCc2cccc(c2)CSC[C@@H](C(N)=O)NC(=O)[C@H](CCC(=O)NCCCNC(=O)CN2CCN(CC(=O)O)CCN(CC(=O)O)CCN(CC(=O)O)CC2)NC(=O)[C@H](Cc2c[nH]c3ccccc23)NC(=O)[C@H]([C@@H](C)O)NC(=O)[C@H](CC(C)C)NC(=O)[C@H](Cc2c[nH]c3ccccc23)NC(=O)[C@H](CC(=O)O)NC(=O)[C@H]2CCCN2C(=O)[C@H](CCC(=O)O)NC1=O [3BP-3873] (Ac-SYCE[dP]DWLTWE(NH(CH2)3NHDOTA)C-NH2; linker 3-12 via mXylylene),< 0.01,B (t1/2 between 5.1 and 15.0 minutes),< 0.01
